Laboratory results published in patent US20120101046A1, “PROPHYLACTIC OR THERAPEUTIC AGENT FOR RETINAL DISEASE AND METHOD FOR PROPHYLAXIS OR THERAPY OF RETINAL DISEASE USING JNK (C-JUN AMINO-TERMINAL KINASE) - INHIBITORY PEPTIDE, AND USE OF THE PEPTIDE” (priority 2009, published 2012).
Read-outs that look alike come from different tables or passages of the source. Non-standard residues stand in square brackets, D forms with d. Residues, ends and D or L forms follow the SMILES beside them.

How the values were obtained:
[1] = tested on: laser-induced rat choroidal neovascularization model; test: Laser-induced rat choroidal neovascularization model, fluorescent fundus angiography; format: in vivo; details: rats, intravitreal, 3 μg/eye, day 7 after photocoagulation
Description: As a pharmacological test model for investigating an inhibitory effect on choroidal neovascularization, a laser-induced choroidal neovascularization model is widely used (Folia Ophthalmologica Japonica, 45, 853-856 (1994)).
Photocoagulation was subsequently performed using a krypton laser photocoagulator (manufactured by NIDEK, a multicolor laser photocoagulator MC-7000). With focusing laser beam on the deep retinal layers, photocoagulation was conducted in the posterior portion of the ocular fundus at 8 spots per eye in a dispersed manner, while avoiding thick retinal blood vessels. After photocoagulation, fundus photography was performed to identify the laser-irradiated sites.
To a vehicle-administered group, 5 μL of physiological saline was administered.
Subsequently, 0.1 mL of a 10% fluorescein sodium solution was injected via the tail vein, and fluorescent fundus angiography (manufactured by Kowa, Fundus Camera Kowa PROIII) was performed. In fluorescent fundus angiography, spots at which fluorescence exposure was not observed was determined as negative (without neovascularization), and spots at which fluorescence exposure was observed were determined as positive (with neovascularization). Moreover, when there were two photocoagulation sites at which slight fluorescence exposure was observed, these photocoagulation sites were determined as positive (with neovascularization). […]

[2] = tested on: tunicamycin-induced rat photoreceptor cell damage model; details: rats, intravitreal, 2.7 μg/eye, 7 days after tunicamycin administration
Description: Such a model was thus used to evaluate the usefulness of the JNK-inhibitory peptide of the present invention against photoreceptor cell damage.
General anesthesia was induced in rats by intramuscular administration of 1 mL/kg of a mixture (7:1) of a 5% (W/V) ketamine hydrochloride injection solution and a 2% xylazine hydrochloride injection solution. A 0.5% (W/V) tropicamide-0.5% phenylephrine hydrochloride ophthalmic solution was instilled into their eyes to cause dilation of the pupils. Under conditions that ocular fundus is visualized, a microsyringe (25 μL volume, Hamilton) fitted with a 33 G needle was used and inserted into the vitreous cavity. To a control group, 54 of a mixture (1:9) of dimethyl sulfoxide and physiological saline was administered. […]
After 7 days from the administration of tunicamycin, general anesthesia was induced in the rats under dark adaptation by intramuscular administration of 1 mL/kg of a mixture (7:1) of a 5% (W/V) ketamine hydrochloride injection solution and a 2% xylazine hydrochloride injection solution. […] Then, using an electroretinogram (ERG) measurement apparatus (manufactured by Tomey Corporation, portable ERG&VEP LE-3000), ERGs (a-wave) were measured. Suppression ratio against reduction in ERG amplitude was subsequently calculated using an equation 4 shown below. […]

[3] = tested on: spermidine-induced retinal degeneration model; test: Spermidine-induced retinal degeneration model, ERG (a-wave) measurement; format: in vivo; details: rats, intravitreal
Source text: Therefore, a spermidine-induced retinal degeneration model is used as a model for evaluating therapeutic agents for diseases involving retinal pigment epithelial damage, such as atrophic AMD (Invest. Ophthalmol. Vis. Sci., 48 (1), 455-463 (2007) (NPL 1); Invest. Ophthalmol. Vis. Sci. 51, ARVO E-abstract 3644 (2010); etc.). Thus, an effect of the JNK-inhibitory peptide of the present invention on photoreceptor cell damage caused by retinal pigment epithelial damage was investigated using the aforementioned model, and then compared with that obtained by the representative JNK-inhibitor, SP600125.
To a control group, 10 μL of Dulbecco PBS was administered. To a vehicle-administered group, 10 μL of a 2 mM solution of spermidine dissolved in Dulbecco PBS was administered. To a peptide A-administered group, a 4 mM solution of spermidine dissolved in Dulbecco PBS was mixed with 0.6 mg/mL peptide A dissolved in Dulbecco PBS to give a 1:1 mixture, and 10 μL of the solution was administered into the vitreous cavity. To an SP600125-administered group, spermidine was dissolved in a 0.3 mg/mL solution of SP600125 dissolved in Dulbecco PBS to give a concentration of 2 mM, and 10 μL of the solution was administered into the vitreous cavity. As spermidine, “Spermidine, Trihydrochloride” (Cat. No. 56766), purchased from Calbiochem, was used. […] As SP600125, “SP600125” (Cat. No. S5567-50 MG), purchased from Sigma Aldrich, was used.
Suppression ratios against reduction in ERG amplitude were subsequently calculated using an equation 1 shown below.
Suppression ratio against reduction in ERG amplitude (%)=((Ex−Ev)/(Ec−Ev))×100, [Equation 1]

[4] = 3 μg/eye, 13 days after spermidine administration

Row | SMILES | Suppression Ratio (%) of Choroidal Neovascularization Development [1] [%] | Suppression Ratio (%) of Choroidal Neovascularization Development ([1]; listed as peptide A) | Suppression ratio against Reduction in ERG (a-Wave) amplitude (%) [2] [%] | Suppression ratio against Reduction in ERG (a-Wave) amplitude (%) ([2]; listed as peptide A) | Suppression ratio against Reduction in ERG (a-Wave) amplitude (%) [3, 4] [%] | Suppression ratio against Reduction in ERG (a-Wave) amplitude (%) ([3]; 3 μg/eye, 13 days after spermidine administration, listed as peptide A) | damage suppression effect in the spermidine model [3] | aggravated the reduction in ERG amplitude [3, 4]
1 | CC(C)C[C@@H](NC(=O)[C@@H](CC(N)=O)NC(=O)[C@@H](CC(C)C)NC(=O)[C@H](NC(=O)[C@H](NC(=O)[C@H]1CCCN1C(=O)[C@@H](CCCNC(=N)N)NC(=O)[C@@H](CCCCN)NC(=O)[C@H]1CCCN1C(=O)[C@@H](CCCNC(=N)N)NC(=O)[C@H]1CCCN1C(=O)[C@H]1CCCN1C(=O)[C@@H](CCCNC(=N)N)NC(=O)[C@@H](CCCNC(=N)N)NC(=O)[C@@H](CCCNC(=N)N)NC(=O)[C@@H](CCC(N)=O)NC(=O)[C@@H](CCCNC(=N)N)NC(=O)[C@@H](CCCNC(=N)N)NC(=O)[C@@H](CCCCN)NC(=O)[C@@H](CCCCN)NC(=O)[C@@H](CCCNC(=N)N)NC(=O)CN)[C@H](C)O)[C@H](C)O)C(=O)N[C@H](Cc1ccccc1)C(=O)N1CCC[C@@H]1C(=O)N[C@H](CCC(N)=O)C(=O)N[C@@H](C(=O)N1CCC[C@@H]1C(=O)N[C@H](CCCNC(=N)N)C(=O)N[C@H](CO)C(=O)N[C@H](CCC(N)=O)C(=O)N[C@H](CC(=O)O)C(=O)O)C(C)C [Peptide A] (H-G[dR][dK][dK][dR][dR][dQ][dR][dR][dR][dP][dP][dR][dP][dK][dR][dP][dT][dT][dL][dN][dL][dF][dP][dQ][dV][dP][dR][dS][dQ][dD]-OH) | 14.3 | approximately 14% | 50.0 | approximately 50% | 72.7 | approximately 73% | – | –
2 | Oc1c2ccccc2c2c3c(cccc13)N=N2 [SP600125] | – | – | – | – | −17.6 | – | no damage suppression effect | approximately 18%
